Results published in patent US9975874B2, “Factor XIa inhibitors” (Merck Sharp & Dohme Corp., priority 2014, dated 2018).

Legend:
[1] = target: purified Human plasma kallikrein (Homo sapiens (Human), UniProt P03952); assay: Kallikrein Assay; format: biochemical; conditions: Plasma kallikrein; substrate Acetyl-K-P-R-AFC, 0.5 nM enzyme, pH 7.4; read-out: PK IC50
Method: (§1) The effectiveness of a compound of the present invention as an inhibitor of Kallikrein can be determined using a relevant purified serine protease, and an appropriate synthetic substrate. The rate of hydrolysis of the chromogenic or fluorogenic substrate by the relevant serine protease was measured both in the absence and presence of compounds of the present invention. Assays were conducted at room temperature or at 37° C. […] A decrease in the rate of fluorescence change in the presence of inhibitor is indicative of enzyme inhibition. Such methods are known to one skilled in the art. The results of this assay are expressed as the inhibitory constant, Ki.
Kallikrein determinations were made in 50 mM HEPES buffer at pH 7.4 containing 150 mM NaCl, 5 mM CaCl2, and 0.1% PEG 8000 (polyethylene glycol; Fisher Scientific). Determinations were made using purified Human plasma kallikrein at a final concentration of 0.5 nM (Enzyme Research Laboratories) and the synthetic substrate, Acetyl-K-P-R-AFC (Sigma # C6608) at a concentration of […].
Times required to achieve equilibration between enzyme and inhibitor were determined in control experiments. The reactions were performed under linear progress curve conditions and fluorescence increase measured at 405 Ex/510 Em nm. […] IC50 was determined by inflection point from a four parameter logistic curve fit. Ki was calculated using the Cheng Prusoff equation, Ki=IC50/(1+([S]/Km)).

[2] = target: purified human Factor XIa (Homo sapiens (Human), UniProt P03951); assay: Factor XIa Assay; format: biochemical; conditions: substrate Z-Gly-Pro-Arg-AFC 100 μM, 40 pM enzyme, pH 7.4; read-out: FXIa IC50
Method: as §1, with “Coagulation Factor XIa” for “Kallikrein”, “The results of this assay are expressed as the inhibitory constant, Ki.” left out
Factor XIa determinations were made in 50 mM HEPES buffer at pH 7.4 containing 150 mM NaCl, 5 mM CaCl2, and 0.1% PEG 8000 (polyethylene glycol; JT Baker or Fisher Scientific). Determinations were made using purified human Factor XIa at a final concentration of 40 pM (Sekisui Diagnostics) and the synthetic substrate, Z-Gly-Pro-Arg-AFC, TFA salt (Sigma #C0980) at a concentration of 100 μM.
Times required to achieve equilibration between enzyme and inhibitor were determined in control experiments. Initial velocities of product formation in the absence (Vo) or presence of inhibitor (Vi) were measured. Assuming competitive inhibition, and that unity is negligible compared Km/[S], [I]/e, and [I]/e (where [S], [I], and e respectively represent the total concentrations, of substrate, inhibitor and enzyme), the equilibrium constant (Ki) for dissociation of the inhibitor from the enzyme can be obtained from the dependence of Vo/Vi on [I] shown in the following equation.

purified human Factor XIa, sequence (P03951 388-625): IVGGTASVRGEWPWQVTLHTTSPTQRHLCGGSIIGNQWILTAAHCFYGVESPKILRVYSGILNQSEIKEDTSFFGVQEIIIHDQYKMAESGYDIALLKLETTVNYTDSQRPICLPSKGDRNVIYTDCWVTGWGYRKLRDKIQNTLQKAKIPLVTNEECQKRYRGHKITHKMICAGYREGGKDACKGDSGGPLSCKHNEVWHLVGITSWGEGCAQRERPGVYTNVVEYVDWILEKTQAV
purified human Factor XIa, sequence (P03951 19-387 partner): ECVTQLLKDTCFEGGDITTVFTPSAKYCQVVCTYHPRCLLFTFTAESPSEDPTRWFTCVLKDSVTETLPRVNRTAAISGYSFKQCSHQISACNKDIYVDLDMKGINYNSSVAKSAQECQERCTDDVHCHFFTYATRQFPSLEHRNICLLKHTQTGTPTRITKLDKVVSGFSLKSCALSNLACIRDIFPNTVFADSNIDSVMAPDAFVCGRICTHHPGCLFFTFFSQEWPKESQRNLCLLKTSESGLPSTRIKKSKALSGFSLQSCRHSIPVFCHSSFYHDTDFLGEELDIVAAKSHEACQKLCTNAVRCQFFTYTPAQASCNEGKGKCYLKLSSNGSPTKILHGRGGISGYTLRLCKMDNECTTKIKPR
purified Human plasma kallikrein, sequence (P03952 391-638): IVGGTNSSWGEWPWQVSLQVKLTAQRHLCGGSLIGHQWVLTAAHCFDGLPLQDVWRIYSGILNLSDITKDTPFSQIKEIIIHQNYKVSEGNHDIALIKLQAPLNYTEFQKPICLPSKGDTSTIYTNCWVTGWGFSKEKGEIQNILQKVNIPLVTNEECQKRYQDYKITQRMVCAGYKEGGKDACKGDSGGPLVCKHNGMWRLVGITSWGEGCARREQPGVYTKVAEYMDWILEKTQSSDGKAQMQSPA
purified Human plasma kallikrein, sequence (P03952 20-390 partner): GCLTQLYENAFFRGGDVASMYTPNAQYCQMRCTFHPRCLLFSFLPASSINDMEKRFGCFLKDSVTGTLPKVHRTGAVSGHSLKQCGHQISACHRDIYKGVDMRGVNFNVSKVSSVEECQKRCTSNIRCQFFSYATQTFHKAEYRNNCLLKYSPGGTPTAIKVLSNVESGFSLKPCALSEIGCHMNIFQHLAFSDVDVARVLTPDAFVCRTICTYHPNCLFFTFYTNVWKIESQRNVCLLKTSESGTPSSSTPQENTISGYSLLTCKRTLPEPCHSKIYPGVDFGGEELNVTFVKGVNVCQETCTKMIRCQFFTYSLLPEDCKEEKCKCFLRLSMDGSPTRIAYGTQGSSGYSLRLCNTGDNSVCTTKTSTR

Row | IC50 [1] [nM] | IC50 [2] [nM] | SMILES
1 | 24.4 | 0.634 | COC(=O)Nc1ccc(-c2cccc(C(Cc3ccccc3)c3ccc(-c4cc(Cl)ccc4-n4cnnn4)c[n+]3[O-])c2)cc1 (racemic) [Example 1, (±)-5-(5-Chloro-2-(1H-tetrazol-1-yl)phenyl)-2-(1-(4′-((methoxycarbonyl)amino)-[1,1′-biphenyl]-3-yl)-2-phenylethyl)pyridine 1-oxide]
2 | 77.7 | 0.459 | O=C(O)c1cccc(-c2cccc(C(Cc3ccccc3)c3ccc(-c4cc(Cl)ccc4-n4cnnn4)c[n+]3[O-])c2)c1 (racemic) [Example 7, 2-(1-(3′-carboxy-[1,1′-biphenyl]-3-yl)-2-phenylethyl)-5-(5-chloro-2-(1H-tetrazol-1-yl)phenyl)pyridine 1-oxide]
3 | 705 | 19.1 | O=C(O)c1ccc(-c2cccc(C(Cc3ccccc3)c3ccc(-c4cc(Cl)ccc4-n4cnnn4)c[n+]3[O-])c2)cc1 (racemic) [Example 10]
4 | 12 | 0.343 | O=C(O)c1cccc(-c2cc(F)cc(C(Cc3ccccc3)c3ccc(-c4cc(Cl)ccc4-n4cnnn4)c[n+]3[O-])c2)c1 (racemic) [Example 13]
5 | 543 | 12 | O=C(O)c1cccc(-c2cccc(C(CC3CC3)c3ccc(-c4cc(Cl)ccc4-n4cnnn4)c[n+]3[O-])c2)c1 (racemic) [Example 17]
6 |  | 216 | [O-][n+]1cc(-c2cc(Cl)ccc2-n2cnnn2)ccc1C(Cc1ccccc1)c1cccc(C2CCNCC2)c1 (racemic) [Example 20, 5-[5-chloro-2-(1H-tetrazol-1-yl)phenyl]-2-[2-phenyl-1-(3-piperidin-4-ylphenyl)ethyl] pyridine 1-oxide]
7 | 496 | 10.2 | CNC(=O)N1CCC(c2cccc(C(Cc3ccccc3)c3ccc(-c4cc(Cl)ccc4-n4cnnn4)c[n+]3[O-])c2)CC1 (racemic) [Example 21, 4-[3-(1-{5-[5-chloro-2-(1H-tetrazol-1-yl)phenyl]-1-oxidopyridin-2-yl}-2-phenylethyl)phenyl]-N-methyl piperidine-1-carboxamide]
8 | 1040 | 59.4 | CS(=O)(=O)N1CCC(c2cccc(C(Cc3ccccc3)c3ccc(-c4cc(Cl)ccc4-n4cnnn4)c[n+]3[O-])c2)CC1 (racemic) [Example 22, 5-[5-chloro-2-(1H-tetrazol-1-yl)phenyl]-2-(1-{3-[1-(methylsulfonyl)piperidin-4-yl]phenyl}-2-phenylethyl) pyridine 1-oxide]
9 |  | 85.9 | COC(=O)N1CCC(c2cccc(C(Cc3ccccc3)c3ccc(-c4cc(Cl)ccc4-n4cnnn4)c[n+]3[O-])c2)CC1 (racemic) [Example 23, methyl 4-[3-(1-{5-[5-chloro-2-(1H-tetrazol-1-yl)phenyl]-1-oxidopyridin-2-yl}-2-phenylethyl)phenyl] piperidine-1-carboxylate]
10 | 714 | 19 | CCNC(=O)N1CCC(c2cccc(C(Cc3ccccc3)c3ccc(-c4cc(Cl)ccc4-n4cnnn4)c[n+]3[O-])c2)CC1 (racemic) [Example 24, 4-[3-(1-{5-[5-chloro-2-(1H-tetrazol-1-yl)phenyl]-1-oxidopyridin-2-yl}-2-phenylethyl)phenyl]-N-ethylpiperidine-1-carboxamide]
11 | 276 | 14 | O=C(O)c1ccc(-c2cccc(C(Cc3ccccc3)c3ccc(-c4cc(Cl)ccc4-n4cnnn4)c[n+]3[O-])c2)cc1 (single isomer, unassigned) [Example 11]
12 |  | 3500 | O=C(O)c1ccc(-c2cccc(C(Cc3ccccc3)c3ccc(-c4cc(Cl)ccc4-n4cnnn4)c[n+]3[O-])c2)cc1 (single isomer, unassigned) [Example 12]
13 |  | 424 | COC(=O)Nc1ccc(-c2cccc([C@@H](Cc3ccccc3)c3ccc(-c4cc(Cl)ccc4-n4cnnn4)c[n+]3[O-])c2)cc1 [Example 2, (R)-5-(5-Chloro-2-(1H-tetrazol-1-yl)phenyl)-2-(1-(4′-((methoxycarbonyl)amino)-[1,1′-biphenyl]-3-yl)-2-phenylethyl)pyridine 1-oxide]
14 |  | 10000 | CS(=O)(=O)c1ccc(-c2cccc([C@@H](Cc3ccccc3)c3ccc(-c4cc(Cl)ccc4-n4cnnn4)c[n+]3[O-])c2)cc1 [Example 5]
15 |  | 232 | O=C(O)c1cccc(-c2cc(F)cc([C@@H](Cc3ccccc3)c3ccc(-c4cc(Cl)ccc4-n4cnnn4)c[n+]3[O-])c2)c1 [Example 15]
16 |  | 1000 | O=C(O)c1cccc(-c2cccc(C(CC3CC3)c3ccc(-c4cc(Cl)ccc4-n4cnnn4)c[n+]3[O-])c2)c1 (stereo not shown) [Example 19]
17 |  | 1000 | CC(C)(C)OC(=O)N1CCC(c2cccc([C@@H](Cc3ccccc3)c3ccc(-c4cc(Cl)ccc4-n4cnnn4)c[n+]3[O-])c2)CC1 [Example 25, tert-butyl 4-{3-[(1R)-1-{5-[5-chloro-2-(1H-tetrazol-1-yl)phenyl]-1-oxidopyridin-2-yl}-2-phenylethyl]phenyl} piperidine-1-carboxylate]
18 |  | 247 | CC(C)(C)OC(=O)N1CCC(c2cccc([C@H](Cc3ccccc3)c3ccc(-c4cc(Cl)ccc4-n4cnnn4)c[n+]3[O-])c2)CC1 [Example 26, tert-butyl 4-{3-[(1S)-1-{5-[5-chloro-2-(1H-tetrazol-1-yl)phenyl]-1-oxidopyridin-2-yl}-2-phenylethyl]phenyl} piperidine-1-carboxylate]
19 |  | 1000 | CCNC(=O)N1CCC(c2cccc([C@@H](Cc3ccccc3)c3ccc(-c4cc(Cl)ccc4-n4cnnn4)c[n+]3[O-])c2)CC1 [Example 27, 4-{3-[(1R)-1-{5-[5-chloro-2-(1H-tetrazol-1-yl)phenyl]-1-oxidopyridin-2-yl}-2-phenylethyl]phenyl}-N-ethyl-piperidine-1-carboxamide]
20 | 536 |  | O=C(C(F)F)N1CCC(c2cccc([C@H](Cc3ccccc3)c3ccc(-c4cc(Cl)ccc4-n4cnnn4)c[n+]3[O-])c2)CC1 [Example 37, 5-[5-chloro-2-(1H-tetrazol-1-yl)phenyl]-2-[(1S)-1-{3-[1-(difluoroacetyl)piperidin-4-yl]phenyl}-2-phenylethyl] pyridine 1-oxide]
21 |  | 131 | CCCOC(=O)N1CCC(c2cccc([C@H](Cc3ccccc3)c3ccc(-c4cc(Cl)ccc4-n4cnnn4)c[n+]3[O-])c2)CC1 [Example 41, propyl 4-{3-[(1S)-1-{5-[5-chloro-2-(1H-tetrazol-1-yl)phenyl]-1-oxidopyridin-2-yl}-2-phenylethyl]phenyl} piperidine-1-carboxylate]
22 |  | 557 | CC(C)COC(=O)N1CCC(c2cccc([C@H](Cc3ccccc3)c3ccc(-c4cc(Cl)ccc4-n4cnnn4)c[n+]3[O-])c2)CC1 [Example 42, 2-methylpropyl 4-{3-[(1S)-1-{5-[5-chloro-2-(1H-tetrazol-1-yl)phenyl]-1-oxidopyridin-2-yl}-2-phenylethyl]phenyl} piperidine-1-carboxylate]
23 |  | 63.4 | O=C(OCCF)N1CCC(c2cccc([C@H](Cc3ccccc3)c3ccc(-c4cc(Cl)ccc4-n4cnnn4)c[n+]3[O-])c2)CC1 [Example 43, 2-fluoroethyl 4-{3-[(1S)-1-{5-[5-chloro-2-(1H-tetrazol-1-yl)phenyl]-1-oxidopyridin-2-yl}-2-phenylethyl]phenyl} piperidine-1-carboxylate]
24 |  | 184 | O=C(OCC1CC1)N1CCC(c2cccc([C@H](Cc3ccccc3)c3ccc(-c4cc(Cl)ccc4-n4cnnn4)c[n+]3[O-])c2)CC1 [Example 44, cyclopropyl-methyl 4-{3-[1S)-1-{5-[5-chloro-2-(1H-tetrazol-1-yl)phenyl]-1-oxidopyridin-2-yl}-2-phenylethyl] phenyl} piperidine-1-carboxylate]
25 |  | 478 | O=C(OCC(F)(F)F)N1CCC(c2cccc([C@H](Cc3ccccc3)c3ccc(-c4cc(Cl)ccc4-n4cnnn4)c[n+]3[O-])c2)CC1 [Example 46, 2,2,2-trifluoroethyl 4-{3-[(1S)-1-{5-[5-chloro-2-(1H-tetrazol-1-yl)phenyl]-1-oxidopyridin-2-yl}-2-phenylethyl]phenyl} piperidine-1-carboxylate]
